The target in assay [1] is α2β2γ1 GABAA receptor subtype (Homo sapiens (Human), UniProt P47869+Q8N1C3). In words: Two-electrode voltage clamp electrophysiology in Xenopus oocytes expressing GABAA receptors (modulation of GABA EC20 current). The settings on record: for Efficacy (GABA)%: % modulation of GABA EC20 = 100*(Fold increase-1), α2β2γ1 oocytes, compound at approx. 30-fold Ki; for Fold increase h-GABA-A α2β2γ1 oocyte @ 30-fold Ki: Xenopus oocytes expressing α2β2γ1, compound at approx. 30-fold its Ki α2β2γ1, GABA EC20 current. It is filed as cell-based. Summed up: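 Each concentration was tested on ≥3 oocytes held at −80 mV at room temperature, recorded 3-5 days post-injection. A control and a test response to EC20 GABA (1.5 min each) were superimposed and their point-by-point ratio taken. Peak ratio reported as % modulation of GABA EC20 = 100×(fold increase−1).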
(In two-electrode clamp one electrode senses voltage and the other passes current.)

The target in assay [2] is human GABAA α5β2γ1 receptor (Homo sapiens (Human), UniProt P31644+Q8N1C3). In words: Radioligand binding assay for γ1-containing GABAA subtypes, [3H]RO7239181 competition (α5β2γ1).
The target in assay [3] is human GABAA α1β3γ2 receptor (Homo sapiens (Human), UniProt P14867+P18507). In words: Radioligand binding assay for γ2-containing GABAA subtypes, [3H]Flumazenil competition (α1β3γ2). Particulars: for γ2/γ1 Selectivity Ratio: Ki α1β3γ2 (nM)/Ki α2β2γ1 (nM); for LogSel: Log[Ki α1β3γ2 (nM)/Ki α2β2γ1 (nM)].
The target in assay [4] is human GABAA α2β2γ1 receptor (Homo sapiens (Human), UniProt P47869+Q8N1C3). In words: Radioligand binding assay for γ1-containing GABAA subtypes, [3H]RO7239181 competition (α2β2γ1).
Setting [5] is: Ki h-GABAA α2β2γ1, [3H]RO7239181 competition binding, human GABAA α2β2γ1.
The mark [6] stands for this setting: Ki h-GABAA α2β2γ1, displacement of [3H]RO7239181, membranes of HEK293F cells expressing human receptors, means of two determinations.

As to `C[C@@H]1N=C(c2c(F)cccc2F)c2c(ccc(Cl)c2Cl)-n2nc(C(=O)N3CC4(CCOCC4)C3)nc21` [Example 99, [(4S)-7,8-dichloro-6-(2,6-difluorophenyl)-4-methyl-4H-[1,2,4]triazolo[1,5-a][1,4]benzodiazepin-2-yl]-(7-oxa-2-azaspiro[3.5]nonan-2-yl)methanone], in assay [1], the “Efficacy (GABA)%” value is 52% and the “Fold increase h-GABA-A α2β2γ1 oocyte @ 30-fold Ki” value was found to be 1.52. The Ki (as a rule, a dissociation constant, usually derived from enzyme kinetics or from competition with a known ligand) in assay [2] stood at 3.29 nM. In assay [3], the affinity, expressed as Ki, was 1550 nM; the “γ2/γ1 Selectivity Ratio” value worked out at 348.9; the LogSel stood at 2.54. The same compound yielded an inhibition constant (Ki) in assay [4] (setting [5]) of 4.5 nM. In assay [4] (setting [6]), this compound returned a Ki of 4.45 nM.
As for `C[C@@H]1N=C(c2ncccc2F)c2c(ccc(Cl)c2Cl)-n2nc(C(=O)N3CC4(CCOC4)C3)nc21` [Example 100, [(4S)-7,8-dichloro-6-(3-fluoro-2-pyridyl)-4-methyl-4H-[1,2,4]triazolo[1,5-a][1,4]benzodiazepin-2-yl]-(6-oxa-2-azaspiro[3.4]octan-2-yl)methanone], the “Efficacy (GABA)%” value in assay [1] was 128%. Also, the “Fold increase h-GABA-A α2β2γ1 oocyte @ 30-fold Ki” value in assay [1] was 2.28. Besides, the Ki in assay [2] is 7.53 nM; in assay [3], 9110 nM; in assay [4] (setting [5]) it was 41.5 nM; in assay [4] (setting [6]) it was 41.5 nM. Moreover, the “γ2/γ1 Selectivity Ratio” value in assay [3] is on record as 219.5. This compound also yielded a LogSel in assay [3] of 2.34.
Take `C[C@@H]1N=C(c2ncccc2F)c2c(ccc(Cl)c2Cl)-n2nc(C(=O)N3CC4(CCCCO4)C3)nc21` [Example 101, [(4S)-7,8-dichloro-6-(3-fluoro-2-pyridyl)-4-methyl-4H-[1,2,4]triazolo[1,5-a][1,4]benzodiazepin-2-yl]-(5-oxa-2-azaspiro[3.5]nonan-2-yl)methanone]: the “Efficacy (GABA)%” value in assay [1] is given as 97%. Also, the “Fold increase h-GABA-A α2β2γ1 oocyte @ 30-fold Ki” value in assay [1] is reported as 1.97. For the same compound, the Ki in assay [2] stood at 14.4 nM; in assay [3], 8680 nM; in assay [4] (setting [5]), 38 nM; in assay [4] (setting [6]), 38 nM. Moreover, the “γ2/γ1 Selectivity Ratio” value in assay [3] is given as 228.3. The same compound had a LogSel in assay [3] of 2.36.
In the case of `C[C@@H]1N=C(c2ncccc2F)c2c(ccc(Cl)c2Cl)-n2nc(C(=O)N3CC4(COC4)C3)nc21` [Example 102, [(4S)-7,8-dichloro-6-(3-fluoro-2-pyridyl)-4-methyl-4H-[1,2,4]triazolo[1,5-a][1,4]benzodiazepin-2-yl]-(2-oxa-6-azaspiro[3.3]heptan-6-yl)methanone], the “Efficacy (GABA)%” value in assay [1] stood at 143%. In assay [1], the “Fold increase h-GABA-A α2β2γ1 oocyte @ 30-fold Ki” value is reported as 2.43. In addition, the inhibition constant Ki is 6.83 nM in assay [2], 7250 nM in assay [3], 51.5 nM in assay [4] (setting [5]) and 51.5 nM in assay [4] (setting [6]). Moreover, the “γ2/γ1 Selectivity Ratio” value in assay [3] amounted to 140.7. Besides, the LogSel in assay [3] came out at 2.15.
For `[2H]C([2H])([2H])OC1CN(C(=O)c2nc3n(n2)-c2ccc(C(F)(F)F)c(Cl)c2C(c2ncccc2F)=N[C@H]3C)C1` [Example 104, [(4S)-7-chloro-6-(3-fluor-2-pyridyl)-4-methyl-8-(trifluoromethyl)-4H-[1,2,4]triazolo[1,5-a][1,4]benzodiazepin-2-yl]-[3-(trideuteriomethoxy)azetidin-1-yl]methanone], in assay [1], the “Efficacy (GABA)%” value turned out to be 117% and the “Fold increase h-GABA-A α2β2γ1 oocyte @ 30-fold Ki” value worked out at 2.17. The same compound gave a Ki in assay [2] of 6.36 nM. Further, in assay [3], the inhibition constant (Ki) was 6300 nM, the “γ2/γ1 Selectivity Ratio” value was found to be 168.8 and the LogSel turned out to be 2.23. Moreover, the affinity in assay [4] (setting [5]) corresponds to a Ki of 37.3 nM. The affinity in assay [4] (setting [6]) corresponds to a Ki of 37.3 nM.
Regarding `C[C@@H]1N=C(c2c(F)cccc2F)c2c(ccc(C(F)(F)F)c2Cl)-n2nc(C(=O)NC[C@@H](C)O)nc21` [Example 105, (4S)-7-chloro-6-(2,6-difluorophenyl)-N-[(2R)-2-hydroxypropyl]-4-methyl-8-(trifluoromethyl)-4H-[1,2,4]triazolo[1,5-a][1,4]benzodiazepine-2-carboxamide], in assay [1], the “Efficacy (GABA)%” value came out at 98% and the “Fold increase h-GABA-A α2β2γ1 oocyte @ 30-fold Ki” value is on record as 1.98. The affinity in assay [2] corresponds to a Ki of 5.05 nM. In assay [3], the Ki was 5130 nM, the “γ2/γ1 Selectivity Ratio” value was determined as 368.4 and the LogSel was found to be 2.57. The affinity in assay [4] (setting [5]), expressed as Ki, was 13.9 nM. In assay [4] (setting [6]), this compound yielded an inhibitory constant (Ki) of 13.9 nM.
On to `C[C@@H]1N=C(c2c(F)cccc2F)c2c(ccc(Cl)c2Cl)-n2nc(C(=O)N3CC4(CCCO4)C3)nc21` [Example 108, [(4S)-7,8-dichloro-6-(2,6-difluorophenyl)-4-methyl-4H-[1,2,4]triazolo[1,5-a][1,4]benzodiazepin-2-yl]-(5-oxa-2-azaspiro[3.4]octan-2-yl)methanone], for which, in assay [1], the “Efficacy (GABA)%” value worked out at 46% and the “Fold increase h-GABA-A α2β2γ1 oocyte @ 30-fold Ki” value is reported as 1.46. This compound also showed a Ki in assay [2] of 2.59 nM. For the same compound, in assay [3], the inhibition constant Ki was 688 nM, the “γ2/γ1 Selectivity Ratio” value was found to be 175.8 and the LogSel is listed as 2.24. This compound also came in with a Ki in assay [4] (setting [5]) of 3.9 nM. Also, in assay [4] (setting [6]), the Ki came to 3.92 nM.
For the compound `C[C@@H]1N=C(c2c(F)cccc2F)c2c(ccc(C(F)(F)F)c2Cl)-n2nc(C(=O)NCC#N)nc21` [Example 110, (4S)-7-chlor-N-(cyanomethyl)-6-(2,6-difluorophenyl)-4-methyl-8-(trifluoromethyl)-4H-[1,2,4]triazolo[1,5-a][1,4]benzodiazepine-2-carboxamide], the “Efficacy (GABA)%” value in assay [1] is 119%. Besides, in assay [1], the “Fold increase h-GABA-A α2β2γ1 oocyte @ 30-fold Ki” value is recorded as 2.19. Besides, the inhibitory constant (Ki) in assay [2] is 2.64 nM; in assay [3], 2480 nM; in assay [4] (setting [5]), 12.1 nM; in assay [4] (setting [6]) it was 12.1 nM. Further, the “γ2/γ1 Selectivity Ratio” value in assay [3] is listed as 205.1. Further, the LogSel in assay [3] is 2.31.
With `Cc1cnc2n1-c1ccc(Cl)c(Cl)c1C(c1c(F)cccc1F)=N[C@H]2C` [Example 111, (4S)-7,8-dichloro-6-(2,6-difluorophenyl)-1,4-dimethyl-4H-imidazo[1,2-a][1,4]benzodiazepine], in assay [1], the “Efficacy (GABA)%” value worked out at 35% and the “Fold increase h-GABA-A α2β2γ1 oocyte @ 30-fold Ki” value worked out at 1.35. Further, in assay [2], the Ki worked out at 1.24 nM. In assay [3], affinity was put at a Ki of 235 nM, the “γ2/γ1 Selectivity Ratio” value stood at 45.6 and the LogSel is on record as 1.66. For the same compound, in assay [4] (setting [5]), the Ki was determined as 5.2 nM. In assay [4] (setting [6]), this compound had a Ki of 5.16 nM.
In the case of `C[C@@H]1N=C(c2ncccc2F)c2c(ccc(C(F)(F)F)c2Cl)-n2nc(C(=O)N3CC4(COC4)C3)nc21` [Example 112, [(4S)-7-chloro-6-(3-fluoro-2-pyridyl)-4-methyl-8-(trifluoromethyl)-4H-[1,2,4]triazolo[1,5-a][1,4]benzodiazepin-2-yl]-(2-oxa-6-azaspiro[3.3]heptan-6-yl)methanone], in assay [1], the “Efficacy (GABA)%” value is reported as 136% and the “Fold increase h-GABA-A α2β2γ1 oocyte @ 30-fold Ki” value is 2.36. In assay [2], the Ki was determined as 9.85 nM. In assay [3], the inhibition constant Ki was above 30000 nM, the “γ2/γ1 Selectivity Ratio” value came out at 484.1 and the LogSel is given as 2.68. Also, the affinity in assay [4] (setting [5]) corresponds to a Ki of 62 nM. Besides, the affinity in assay [4] (setting [6]), expressed as Ki, was 62 nM.
As to `C[C@@H]1N=C(c2ncccc2F)c2c(ccc(C(F)(F)F)c2Cl)-n2nc(C(=O)N3CC4(CCCO4)C3)nc21` [Example 113, [(4S)-7-chloro-6-(3-fluoro-2-pyridyl)-4-methyl-8-(trifluoromethyl)-4H-[1,2,4]triazolo[1,5-a][1,4]benzodiazepin-2-yl]-(5-oxa-2-azaspiro[3,4]octan-2-yl)methanone], in assay [1], the “Efficacy (GABA)%” value turned out to be 76% and the “Fold increase h-GABA-A α2β2γ1 oocyte @ 30-fold Ki” value worked out at 1.76. For the same compound, in assay [2], affinity was put at a Ki of 7.04 nM. In addition, in assay [3], the Ki turned out to be 11400 nM, the “γ2/γ1 Selectivity Ratio” value came to 604.3 and the LogSel was determined as 2.78. The compound also returned a Ki in assay [4] (setting [5]) of 18.9 nM. The affinity in assay [4] (setting [6]) corresponds to a Ki of 18.9 nM.
As for `Cc1cnc2n1-c1ccc(C(F)(F)F)c(Cl)c1C(c1c(F)cccc1F)=N[C@H]2C` [Example 115, (4S)-7-chloro-6-(2,6-difluorophenyl)-1,4-dimethyl-8-(trifluoromethyl)-4H-imidazo[1,2-a][1,4]benzodiazepine], in assay [1], the “Efficacy (GABA)%” value is recorded as 49% and the “Fold increase h-GABA-A α2β2γ1 oocyte @ 30-fold Ki” value amounted to 1.49. This compound returned an inhibitory constant (Ki) in assay [2] of 2.63 nM. In assay [3], the Ki amounted to 827 nM, the “γ2/γ1 Selectivity Ratio” value came out at 67.4 and the LogSel stood at 1.83. In addition, in assay [4] (setting [5]), the Ki was determined as 12.3 nM. Further, the inhibition constant (Ki) in assay [4] (setting [6]) came to 12.3 nM.
`Cc1cnc2n1-c1ccc(Br)c(Cl)c1C(c1c(F)cccc1F)=N[C@H]2C` [Example 116, (4S)-8-bromo-7-chloro-6-(2,6-difluorophenyl)-1,4-dimethyl-4H-imidazo[1,2-a][1,4]benzodiazepine]: in assay [1], the “Efficacy (GABA)%” value stood at 35% and the “Fold increase h-GABA-A α2β2γ1 oocyte @ 30-fold Ki” value is listed as 1.35. The compound also registered an inhibitory constant (Ki) in assay [2] of 2.47 nM. For the same compound, in assay [3], affinity was put at a Ki of 94.5 nM, the “γ2/γ1 Selectivity Ratio” value was found to be 16.4 and the LogSel worked out at 1.22. The inhibition constant (Ki) in assay [4] (setting [5]) is 5.7 nM. The compound further showed a Ki in assay [4] (setting [6]) of 5.7 nM.

These data come from patent US12365687B2 (Hoffmann-La Roche Inc., priority 2021, dated 2025).
